Paper PMC11053944, “FRET Assays for the Identification of C. albicans HSP90-Sba1 and Human HSP90α-p23 Binding Inhibitors” (Pharmaceuticals, 2024)
“Also recorded” adds a separate entry of the source.

Tests used:
[1] = molecular target: T1, C. albicans HSP90–Sba1 binding (Candida albicans, UniProt P46598); assay: FRET inhibitor screening assay, C. albicans HSP90-Sba1 binding; conditions: 10 or 100 µM (Sba1 20 µM), triplicates, 3 mM ATP, 1% DMSO, 15 min 30 °C
T1 construct: made in house; host or cells: E. coli BL21(DE3)
T1 sequence (P46598 whole entry): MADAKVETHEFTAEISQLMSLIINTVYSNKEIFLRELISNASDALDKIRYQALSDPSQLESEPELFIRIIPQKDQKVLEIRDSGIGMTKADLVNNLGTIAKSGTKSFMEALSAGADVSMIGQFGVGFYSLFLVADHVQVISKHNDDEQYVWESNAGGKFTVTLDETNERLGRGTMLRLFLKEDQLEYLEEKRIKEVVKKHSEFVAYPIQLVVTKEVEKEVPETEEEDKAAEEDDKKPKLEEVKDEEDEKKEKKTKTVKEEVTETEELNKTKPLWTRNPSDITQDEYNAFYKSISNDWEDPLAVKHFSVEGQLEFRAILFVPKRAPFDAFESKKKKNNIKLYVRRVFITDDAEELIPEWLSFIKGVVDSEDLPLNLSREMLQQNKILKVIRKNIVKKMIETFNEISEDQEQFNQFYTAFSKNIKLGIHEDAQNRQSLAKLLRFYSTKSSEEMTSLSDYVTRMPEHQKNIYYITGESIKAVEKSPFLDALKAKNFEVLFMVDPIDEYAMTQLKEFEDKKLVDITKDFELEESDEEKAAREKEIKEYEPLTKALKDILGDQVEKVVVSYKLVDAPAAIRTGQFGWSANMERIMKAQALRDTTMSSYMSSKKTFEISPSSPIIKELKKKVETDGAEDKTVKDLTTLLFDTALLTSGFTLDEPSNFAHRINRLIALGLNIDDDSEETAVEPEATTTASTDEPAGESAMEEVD
Text: We used the Z′ factor (Z′) to optimize the FRET assays for screening purposes. Z′ represents a simple statistical parameter for the quality assessment and optimization of HTS assays and screening assays in general. It is a measure that determines the degree of signal separation between binding and non-binding data sets. Calculation of the Z′ factor is based on the standard deviation of the individual data sets as well as their general signal separation. Values ≥ 0.5 can be classified as excellent for screening purposes. […] When the fluorescent fusion proteins of HSP90 and co-chaperones bind to each other, FRET occurs between donor and acceptor fluorophores, and the sensitized emission (EmFRET) signal increases. Consequently, the fluorescence intensity of the donor decreases (FLDD). […] To obtain an informative Z′ value, we calculated it based on at least three independent experiments amounting to 144 samples for both binding and non-binding control data sets (Figure 4B,E). […] We defined the ‘hit threshold’ as a decrease in readout signal of more than 3 standard deviations (SDs) from the mean signal of the binding control. This constitutes a common threshold for hit identification in HTS campaigns.
(§1) FRET experiments were carried out in 384-well microtiter plates (Art. No. 3766 Corning, NY, USA, or Art. No. 781906, Greiner Bio-One GmbH, Frickenhausen, Germany) containing a final volume of 20 µL and measured with a microplate reader Infinite M200Pro (Tecan, Männedorf, Switzerland). The fluorescence was measured in three channels: excitation (ex.): 488 nm/emission (em.): 525 nm (mNeonGreen fluorescence), ex.: 561 nm/em.: 610 nm (mScarlet-I fluorescence) and the FRET channel ex.: 488 nm/em.: 610 nm. The excitation and emission bandwidths were set to 9 and 20 nm, respectively. Experiments for the determination of the equilibrium dissociation constants were performed with a filter-based microplate reader Infinite F200Pro (Tecan, Männedorf, Switzerland). The fluorescence was measured in three channels using the following filters: ex.: 485 ± 20 nm/em.: 535 ± 20 nm (mNeonGreen channel), ex.: 535 ± 20 nm/em.: 612 ± 10 nm (mScarlet-I channel) and the FRET channel ex.: 485 ± 20 nm/em.: 612 ± 10 nm. FRET emission (EmFRET) was calculated according to Song et al. 2011 [81]:(1) EmFRET=FLDA−x×FLDD−(y×FLAA) where FLDA is the fluorescence signal of the FRET channel and FLDD and FLAA are fluorescence signals from the mNeonGreen and mScarlet-I channels, respectively. The correction factors x and y were calculated as follows:(2) x=FLDA/FLDD for samples containing only the donor fluorophore or fluorescent fusion proteins with mNeonGreen and (3) y=FLDA/FLAA for samples containing only the acceptor fluorophore or fluorescent fusion proteins with mScarlet-I in the same concentration as samples containing both the donor and acceptor.
For screening for the identification of ATP-competitive C. albicans HSP90 and HSP90-Sba1 binding inhibitors, 10 µL of HSP90-mNeonGreen ([…]) in HEPES buffer (40 mM HEPES/KOH pH 7.5, 20 mM KCl) was mixed with 10 µL of 200 µM compound solution in 2x reaction buffer (40 mM HEPES/KOH pH 7.5, 20 mM KCl, 10 mM MgCl2, 40 mM Na2MoO4, Triton-X 100 0.2%), 6 mM ATP, 2% DMSO, resulting […] Samples for binding control (3 mM ATP, final concentration) and non-binding control (no ATP) were prepared in the same manner without compounds. The samples were incubated for 15 min at 30 °C prior to measurement.

[2] = molecular target: T2, human HSP90α–p23 binding (Homo sapiens, UniProt P07900); assay: FRET inhibitor screening assay, human HSP90α-p23 binding; conditions: 10 or 100 µM, triplicates, 3 mM ATP, 1% DMSO, 15 min 37 °C
T2 construct: made in house; host or cells: E. coli Rosetta2(DE3) pLysS
Text: We used the Z′ factor (Z′) to optimize the FRET assays for screening purposes. Z′ represents a simple statistical parameter for the quality assessment and optimization of HTS assays and screening assays in general. It is a measure that determines the degree of signal separation between binding and non-binding data sets. Calculation of the Z′ factor is based on the standard deviation of the individual data sets as well as their general signal separation. Values ≥ 0.5 can be classified as excellent for screening purposes. […] When the fluorescent fusion proteins of HSP90 and co-chaperones bind to each other, FRET occurs between donor and acceptor fluorophores, and the sensitized emission (EmFRET) signal increases. Consequently, the fluorescence intensity of the donor decreases (FLDD). […] We defined the ‘hit threshold’ as a decrease in readout signal of more than 3 standard deviations (SDs) from the mean signal of the binding control. This constitutes a common threshold for hit identification in HTS campaigns.
The excitation and emission bandwidths were set to 9 and 20 nm, respectively. Experiments for the determination of the equilibrium dissociation constants were performed with a filter-based microplate reader Infinite F200Pro (Tecan, Männedorf, Switzerland). […] The correction factors x and y were calculated as follows:(2) x=FLDA/FLDD for samples containing only the donor fluorophore or fluorescent fusion proteins with mNeonGreen and (3) y=FLDA/FLAA for samples containing only the acceptor fluorophore or fluorescent fusion proteins with mScarlet-I in the same concentration as samples containing both the donor and acceptor.
For screening for the identification of ATP-competitive C. albicans HSP90 and HSP90-Sba1 binding inhibitors, 10 µL of HSP90-mNeonGreen (2 µM) and Sba1-mScarlet-I (4 µM) in HEPES buffer (40 mM HEPES/KOH pH 7.5, 20 mM KCl) was mixed with 10 µL of 200 µM compound solution in 2x reaction buffer (40 mM HEPES/KOH pH 7.5, 20 mM KCl, 10 mM MgCl2, 40 mM Na2MoO4, Triton-X 100 0.2%), 6 mM ATP, 2% DMSO, resulting ultimately in constant HSP90-mNeonGreen concentrations of 1 µM and Sba1-mScarlet-I 2 µM in reaction buffer. Samples for binding control (3 mM ATP, final concentration) and non-binding control (no ATP) were prepared in the same manner without compounds. The samples were incubated for 15 min at 30 °C prior to measurement. The assay for the human HSP90α–p23 binding inhibitor identification was performed analogously, with the exception that samples were incubated for 15 min at 37 °C prior to measurement. Since binding samples show both a high EmFRET as well as a reduction in donor emission (FLDD), we calculated the quotient (EmFRET/FLDD) to derive an improved signal separation and robustness. The nucleoside-mimetics library was obtained from Enamine (catalog No. NML-320-X-20, Enamine Ltd., Kyiv, Ukraine). Z′ and Z factors were calculated based on Zhang et al..

[3] = molecular target: HSP90; conditions: cited from earlier work
[4] = tested on: HSP90 - Sba1/p23 binding; conditions: according to literature; cited from earlier work
[5] = molecular target: human HSP90β–p23 complex; design: method as in PMID 16403413; conditions: read-out: Kd, binding to human HSP90β–p23 complex; cited from earlier work
[6] = molecular target: human HSP90β; design: method as in earlier work; conditions: 25 °C; ref 37 (McLaughlin et al.); read-out: Kd, binding to human HSP90β; cited from earlier work
[7] = molecular target: T3, C. albicans HSP90-mNeonGreen (Candida albicans, UniProt P46598); assay: Microscale thermophoresis, AMP-PNP binding; conditions: 50 nM HSP90-mNeonGreen, 25 °C, error of the fit; read-out: Kd, binding to C. albicans HSP90-mNeonGreen (MST)
T3 construct: made in house; host or cells: E. coli BL21(DE3)
T3 sequence (P46598 whole entry): as above
Experimental: HSP90-mNeonGreen (C. albicans) or mNeonGreen serving as the negative control was adjusted to 100 nM with Sba1 buffer (40 mM HEPES/KOH pH 7.5, 20 mM KCl). The ligand AMP-PNP was dissolved in 2x reaction buffer (40 mM HEPES/KOH pH 7.5, 20 mM KCl, 10 mM MgCl2, 40 mM Na2MoO4, 0.2% Triton-X 100), and a series of 16 1:1 dilutions was prepared using the same buffer, producing ligand concentrations ranging from […] to […]. For the measurement, each ligand dilution was mixed with one volume of HSP90-mNeonGreen or mNeonGreen, which led to a final concentration of 50 nM and final ligand concentrations ranging from 153 nM to […]. After 5 min incubation at room temperature, the samples were loaded into Monolith NT.115 Capillaries (NanoTemper Technologies, Munich, Germany). MST was measured using a Monolith NT.115 at an ambient temperature of 25 °C. Instrument parameters were adjusted to 35% LED power and a high MST power of 80%. Data of three independently pipetted measurements were analyzed (MO.Affinity Analysis software version 2.1.3, NanoTemper Technologies, Munich, Germany) using the signal from an MST-on time of 30 s.

[8] = molecular target: T4, C. albicans HSP90-mNeonGreen–Sba1-mScarlet-I binding (Candida albicans, UniProt P46598, E36A)
T4 construct: made in house; host or cells: E. coli BL21(DE3)
T4 sequence (P46598 whole entry, stated change not applied): as the sequence (P46598 whole entry) above
Experimental: (§2) In this investigation, 1 µM HSP90-mNeonGreen was incubated with 2 µM Sba1-mScarlet-I in reaction buffer containing 5 mM ATP either alone (UC) or with the addition of 20 µM Sba1. As a negative control, samples containing 20 µM bovine serum albumin (BSA) were used.
as §1
All experiments were carried out in reaction buffer (40 mM HEPES/KOH pH 7.5, 20 mM KCl, 5 mM MgCl2, 20 mM Na2MoO4, Triton-X 100 0.1%). HEPES and KCl were purchased from AppliChem, Darmstadt, Germany. […]

[9] = molecular target: T5, human HSP90α-mNeonGreen–p23-mScarlet-I binding (Homo sapiens, UniProt P07900, E47A); assay: FRET characterization of model inhibitors and ATP on human HSP90α-p23 binding
T5 construct: made in house; host or cells: E. coli Rosetta2(DE3) pLysS
Experimental: as §2, §1
All experiments were carried out in reaction buffer (40 mM HEPES/KOH pH 7.5, 20 mM KCl, 5 mM MgCl2, 20 mM Na2MoO4, Triton-X 100 0.1%). HEPES and KCl were purchased from AppliChem, Darmstadt, Germany. KOH and MgCl2 were obtained from VWR Chemicals, Darmstadt, Germany. Na2MoO4 was from Merck, Darmstadt, Germany. Triton-X 100 was purchased from Serva, Heidelberg, Germany.
For C. albicans Sba1 competition experiments for HSP90-mNeonGreen–Sba1-mScarlet-I binding, 1 µM HSP90-mNeonGreen and 1 µM Sba1-mScarlet-I were incubated with varying concentrations of Sba1 in a range of 0–25,000 nM (lowest non-zero concentration 12 nM) in reaction buffer containing 5 mM ATP. The experiment was performed twice in nonaplicates. For human p23 competition experiments for HSP90α-mNeonGreen–p23-mScarlet-I binding, 1 µM HSP90α-mNeonGreen and 1 µM p23-mScarlet-I were incubated with varying concentrations of p23 in a range of 0–50 000 nM (lowest non-zero concentration 23 nM) in reaction buffer containing 5 mM ATP. The experiment was performed twice in hexaplicates. […] The experiment was performed thrice in triplicates. […] The IC50,rel values were calculated using the equation log (inhibitor) vs. response-variable slope (four parameters) in GraphPad Prism 5. Ki values for inhibition of HSP90-mNeonGreen–Sba1-mScarlet-I/p23-mScarlet-I binding by non-labeled Sba1/p23 were calculated with One Site—Fit Ki in GraphPad Prism 5. […] The EC50,rel values were calculated using the log (agonist) vs. response-variable slope (four parameters) equation in GraphPad Prism 5.

For `CC1(C)CC(=O)c2c(C(F)(F)F)nn(-c3ccc(C(N)=O)c(N[C@H]4CC[C@H](OC(=O)CN)CC4)c3)c2C1` [SNX-5422], the “hit identification (EmFRET/FLDD decrease of more than 3 SDs from binding control mean)” value [1] is listed as “reliably identified as disrupting HSP90-Sba1 binding; also recorded: reliably identified as hits”, the “hit identification (EmFRET/FLDD decrease of more than 3 SDs from binding control mean)” value [2] is listed as “reliably identified as hits” and the Kd ([3]; Table S1, according to literature) is listed as 0.016 µM. The “Influence on p23/Sba1 binding” value [4] was “Yes”.

In the case of `COc1c(C)cnc(Cn2cnc3c(Cl)nc(N)nc32)c1C` [BIIB021], the “hit identification (EmFRET/FLDD decrease of more than 3 SDs from binding control mean)” value [1] is given as “reliably identified as disrupting HSP90-Sba1 binding; also recorded: reliably identified as hits”, the Ki ([3]; Table S1, read-out: Ki (printed in the Kd value column)) is given as […] and the “Influence on p23/Sba1 binding” value [4] is given as “Yes”.

In the case of `Nc1ncnc2c1ncn2[C@@H]1O[C@H](COP(=O)(O)OP(=O)(O)NP(=O)(O)O)[C@@H](O)[C@H]1O` [AMP-PNP], the Kd [5] is listed as 39 ± 12 µM, the Kd [6] is listed as 148 ± 12 µM and the Kd [7] is listed as 200 ± 70 µM.

In the case of `Nc1ncnc2c1ncn2[C@@H]1O[C@H](COP(=O)(O)OP(=O)(O)OP(=O)(O)O)[C@@H](O)[C@H]1O` [ATP], the “concentration at which maximum binding was reached” value ([8]; 1 µM HSP90E36A-mNeonGreen, 2 µM Sba1-mScarlet-I) is reported as ~ 3 mM, the EC50 ([8]; 1 µM donor, 2 µM acceptor, ATP 0–12,500 µM, read-out: EC50,rel, influence on HSP90E36A-mNeonGreen–Sba1-mScarlet-I binding) is reported as 220 ± 40 µM and the “concentration at which maximum binding was reached” value ([9]; 1 µM HSP90αE47A-mNeonGreen, 2 µM p23-mScarlet-I) is reported as ~ 3 mM. It also gave an EC50 ([9]; 1 µM donor, 2 µM acceptor, read-out: EC50,rel, influence on HSP90αE47A-mNeonGreen–p23-mScarlet-I binding) of 210 ± 30 µM.
